# Biological target: T1, aryl hydrocarbon receptor (Rattus norvegicus, UniProt P41738, Q794H)
# T1 construct: The SD-line rat AhR gene-coding region was amplified from the reverse-transcribed sample by means of PCR; V5-His (C-terminal tag of vector pcDNA4/V5-His B); expressed in transfected cells; host or cells: mouse neuroblastoma Neuro2a, transient transfection with LIPOFECTAMINE 2000
# T1 sequence (P41738 10-853 Q794H): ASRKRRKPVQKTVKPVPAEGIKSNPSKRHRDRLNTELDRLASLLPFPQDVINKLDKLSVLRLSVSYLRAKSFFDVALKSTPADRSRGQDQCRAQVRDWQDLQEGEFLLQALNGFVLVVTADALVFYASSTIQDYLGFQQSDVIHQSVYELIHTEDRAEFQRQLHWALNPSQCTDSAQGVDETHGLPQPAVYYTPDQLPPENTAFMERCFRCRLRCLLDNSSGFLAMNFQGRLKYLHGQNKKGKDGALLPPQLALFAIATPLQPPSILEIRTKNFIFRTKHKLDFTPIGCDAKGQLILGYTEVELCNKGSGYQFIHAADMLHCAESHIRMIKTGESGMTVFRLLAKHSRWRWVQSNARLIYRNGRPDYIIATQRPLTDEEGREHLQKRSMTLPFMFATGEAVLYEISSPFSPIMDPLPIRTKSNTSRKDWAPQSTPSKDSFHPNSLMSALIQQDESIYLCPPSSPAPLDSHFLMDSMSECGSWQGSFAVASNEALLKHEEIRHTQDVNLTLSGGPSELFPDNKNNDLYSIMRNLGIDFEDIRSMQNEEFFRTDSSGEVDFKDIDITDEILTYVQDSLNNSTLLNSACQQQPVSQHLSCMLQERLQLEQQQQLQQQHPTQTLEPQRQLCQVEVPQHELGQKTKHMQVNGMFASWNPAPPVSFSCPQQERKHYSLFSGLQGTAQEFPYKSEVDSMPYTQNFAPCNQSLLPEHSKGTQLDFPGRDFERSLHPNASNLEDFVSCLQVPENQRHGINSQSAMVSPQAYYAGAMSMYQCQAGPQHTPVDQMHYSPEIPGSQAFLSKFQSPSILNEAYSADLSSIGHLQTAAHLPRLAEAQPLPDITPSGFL
# Assay: Reporter gene assay in Neuro2a with pTHE100/Luc, pTHE100×3/Luc and pTHE100×5/Luc (tandem copies of SEQ ID No: 3)
# Type: cell-based, SD-line rat
# Source text: The terminal of the “region of SEQ ID No: 3 amplified by PCR in Example 6” was phosphorylated with 5′-polynucleotide kinase (Takara Bio Inc.), and then, the regions of SEQ ID No: 3 were ligated in tandem with each other by using a ligation kit (Toyobo). The ligated DNA fragment was digested with restriction enzymes KpnI and NheI, and subjected to agarose gel electrophoresis. DNA fragment consisting of three copies of the regions of SEQ ID No: 3 linked in tandem and DNA fragment consisting of five copies of the regions of SEQ ID No: 3 linked in tandem were excised from the gel based on their molecular weight, and purified with a QIAQUICK Gel Extraction Kit. These DNA fragments were digested with KpnI and NheI, and incorporated into a vector pTHE100/Luc containing no region of SEQ ID No: 3, to prepare a recombinant vector pTHE100×3/Luc containing three tandem copies of the regions of SEQ ID No: 3, and a recombinant vector pTHE100×5/Luc containing five tandem copies of the regions of SEQ ID No: 3 (FIG. 7A). pTH100/Luc, pTHE100×3/Luc, and pTHE100×5/Luc were introduced into Neuro2a by a method similar to that in Example 3. The obtained cell was exposed to 10 nM TCDD, and then, the change in the expression amount of the reporter gene was examined (FIG. 7B).
# Further, the transcriptional response to the TCDD concentration and the transcriptional response to dioxin congeners were evaluated by using the pTHE100×3/Luc. The transcriptional response to the TCDD concentration was determined by a method similar to that in Example 3, specifically, by incorporating the vector pTHE100×3/Luc into Neuro2a, exposing the obtained cell to 1 to 10,000 μM of TCDD, and measuring the change in the expression amount of the reporter gene. […] On the other hand, the transcriptional response to dioxin congeners was determined by a method similar to that in Example 3, specifically, by incorporating the vector pTHE100×3/Luc into Neuro2a, exposing the obtained cell to eight kinds of dioxin congeners including TCDD, and measuring the activity of these congeners on transcriptional regulation. […]
structure (smiles),measurement,setting,value
"Clc1cc2c(cc1Cl)Oc1cc(Cl)c(Cl)cc1O2 [TCDD, 2,3,7,8-tetrachlorodibenzo-p-dioxine]","increase in the activity of the test substance on transcriptional regulation, by number of copies of SEQ ID No: 3","10 nM TCDD, pTH100/Luc, pTHE100×5/Luc",highest with the vector pTHE100×3/Luc
same,influence of dioxin congeners on transcriptional regulation,eight kinds of dioxin congeners tested,exerted influence on transcriptional regulation
same,expression amount of the reporter gene versus TCDD concentration,"exposure 1 to 10,000 μM of TCDD (so in the source)",increased statistically significantly with the increase in TCDD concentration up to 10 μM

# From patent US7811760B2, “Vector and method for detecting the change in transcription amount” (priority 2006, dated 2010)
